Reference: the NIST ThermoML archive (doi:10.1016/j.jct.2017.08.004)

Assay: molar heat capacity at constant pressure
Details: 101.33 kPa, Small sample (50 mg) DSC

OC[C@@H](O)[C@@H](O)CO [meso-1,2,3,4-butanetetrol]
Details	molar heat capacity at constant pressure [J/K/mol]
335.15 K, Crystal	187.33
336.15 K, Crystal	187.85
337.15 K, Crystal	188.31
338.15 K, Crystal	188.9
339.15 K, Crystal	189.49
340 K, Crystal	189.91
340.15 K, Crystal	189.94
341.15 K, Crystal	190.43
342.15 K, Crystal	191.01
343.15 K, Crystal	191.56
344.15 K, Crystal	192.16
345 K, Crystal	192.66
345.15 K, Crystal	192.67
346.15 K, Crystal	193.32
347.15 K, Crystal	193.86
348.15 K, Crystal	194.17
349.15 K, Crystal	194.83
350 K, Crystal	195.43
350.15 K, Crystal	195.3
351.15 K, Crystal	195.72
352.15 K, Crystal	196.34
353.15 K, Crystal	197.73
354.15 K, Crystal	198.08
355 K, Crystal	198.22
355.15 K, Crystal	198.55
356.15 K, Crystal	199.02
357.15 K, Crystal	199.53
358.15 K, Crystal	200.16
359.15 K, Crystal	200.7
360 K, Crystal	201.07
360.15 K, Crystal	201.23
361.15 K, Crystal	201.82
362.15 K, Crystal	202.33
363.15 K, Crystal	202.72
364.15 K, Crystal	203.4
365 K, Crystal	203.99
365.15 K, Crystal	203.96
366.15 K, Crystal	204.56
367.15 K, Crystal	205.27
368.15 K, Crystal	205.84
369.15 K, Crystal	206.45
370 K, Crystal	207.02
370.15 K, Crystal	207.1
371.15 K, Crystal	207.59
372.15 K, Crystal	208.24
373.15 K, Crystal	208.9
374.15 K, Crystal	209.47
375 K, Crystal	210.16
375.15 K, Crystal	210.03
412.05 K, Liquid	355.49
412.15 K, Liquid	355.53
412.25 K, Liquid	355.65
412.35 K, Liquid	355.53
412.45 K, Liquid	355.34
412.55 K, Liquid	355.36
412.65 K, Liquid	355.43
412.75 K, Liquid	355.39
412.85 K, Liquid	355.48
412.95 K, Liquid	355.36
413.05 K, Liquid	355.34
413.15 K, Liquid	355.22
414.15 K, Liquid	354.92
415 K, Liquid	354.91
415.15 K, Liquid	354.76
416.15 K, Liquid	354.79
417.15 K, Liquid	354.7
418.15 K, Liquid	354.67
419.15 K, Liquid	354.7
420 K, Liquid	354.96
420.15 K, Liquid	354.81
421.15 K, Liquid	354.98
422.15 K, Liquid	354.99
423.15 K, Liquid	354.99
424.15 K, Liquid	354.94
425 K, Liquid	355.01
425.15 K, Liquid	354.94
426.15 K, Liquid	354.95
427.15 K, Liquid	355.23
428.15 K, Liquid	355.21
429.15 K, Liquid	355.15
430 K, Liquid	355.06
430.15 K, Liquid	355.18
431.15 K, Liquid	355.17
432.15 K, Liquid	355.17
433.15 K, Liquid	355
434.15 K, Liquid	354.85
435 K, Liquid	355.11
435.15 K, Liquid	355.19
